Source: US11471462B2, “Compositions and methods for detecting and treating diabetes” (THE BROAD INSTITUTE, INC., priority 2016, dated 2022)

These compounds were tested on SLC16A11 (assay: Metabolic effectors on SLC16A11 transcript levels in SNU761 cells). Settings: 24 hours, low and high concentrations.
Format: cell-based, human
Experimental: (§1) FIG. 22 provides bar graphs showing the effects of low and high concentrations of metabolic effectors (oleic acid (OA), insulin and glucagon) on expression levels of SLC16A11 and SLC16A13 transcripts in SNU761 cells cultured for 24 hours in the presence of low/high concentrations of OA (0.3 mM/1.5 mM); insulin (100 nM/500 nM); or glucagon (100 nM/500 nM). Relative transcipt levels of SLC16A11 and SLC16A13 are shown, with 2-FBS (2% Fetal Bovine Serum) used as control.
(§2) FIG. 23 provides bar graphs showing the effects of low and high concentrations of pyruvate or lactate on expression levels of SLC16A11 and SLC16A13 transcripts in SNU761 cells cultured for 24 hours in the presence of 2 mM pyruvate (low), 10 mM pyruvate (high), 20 mM lactate (low), or 100 mM lactate (high). Relative transcipt levels of SLC16A11 and SLC16A13 are shown, compared with transcript levels in cell cultured in increasing concentrations of glucose.
(§3) To assess whether metabolic effectors regulated SLC16A11 and SLC16A13 transcript levels, endogenous transcripts in SNU761 cells (derived from a human hepatocellular carcinoma) were examined following exposure of the cells to different metabolic perturbations. SNU761 cells were cultured in the presence of various metabolic effectors for 24 hours after which time cell lysates were collected and the relative endogenous expression levels of SLC16A11 and SLC16A13 transcripts were assessed. The metabolic effectors included in the cell cultures included oleic acid (OA) at a low concentration (0.3 mM) or a high concentration (1.5 mM); insulin at a low concentration (100 nM) or a high concentration (500 nM) and glucagon at a low concentration (100 nM) and a high concentration (500 nM). Cells cultured in 2-FBS were used as a control. […] (FIG. 22). Similarly, SNU761 cells were cultured in the presence or absence of low or high concentrations of pyruvate or lactate in the culture medium for 24 hours after which time cell lysates were analyzed. In the cultures, low (L) pyruvate concentration was 2 mM; high (H) pyruvate concentration was 10 mM, and low lactate concentration was 20 mM, while high lactate concentration was 100 mM. […] (FIG. 23).
For insulin: metabolic effector (hormone), the SLC16A11 transcript levels was “alter”. With glucagon: metabolic effector (hormone) the SLC16A11 transcript levels was “alter”. In the case of `CCCCCCCC/C=C\CCCCCCCC(=O)O` [oleic acid], the SLC16A11 transcript levels is reported as “alter”.

What follows are compounds tested on SLC16A11 (assay: SLC16A11 protein-protein interaction study (immunoprecipitation, quantitative mass spectrometry)). Settings: putative SLC16A11^REF interaction partners; immunoprecipitation from HEK293T cells vs empty vector control; Blandt-Altman.
Parameters: species or system human
Description: Alternatively, these variants may result in reduced transport because they disrupt protein-protein interactions responsible for correct SLC16A11 function. To explore this possibility, SLC16A11 was immunoprecipitated from HEK293T cells expressing either REF or T2D risk SLC16A11-V5 or empty vector control and quantitative mass spectrometry was used to define the SLC16A11 interactome.
Another mechanism through which the variants could affect activity is through disruption of protein-protein interactions. To explore this possibility, quantitative mass spectrometry-based protein-protein interaction studies were performed to define the SLC16A11 interactome and evaluate if the T2D risk coding variants alter any interactions.
Beads were then washed once with lysis buffer and three times with wash buffer. After the last wash, residual wash buffer was removed, 10 μL fresh wash buffer was added, and beads were stored at −80° C. until analysis by the Proteomics Platform at the Broad Institute, as detailed in the “Proteomics Methods for SLC16A11 Protein Interaction Studies” below.
The beads from immunopurification were washed once with IP lysis buffer, then three times with PBS, the three different lysates of each replicate were resuspended in 90 uL digestion buffer (2M Urea, 50 mM Tris HCl), 2 ug of sequencing grade trypsin added, 1 hour shaking at 700 rpm. The supernatant was removed and placed in a fresh tube. The beads were then washed twice with 50 uL digestion buffer and combined with the supernatant. The combined supernatants were reduced (2 uL 500 mM DTT, 30 minutes, RT), alkylated (4 uL 500 mM IAA, 45 minutes, dark) and a longer overnight digestion performed: 2 ug (4 uL) trypsin, shake o/n, The samples were then quenched with 20 uL 10% FA and desalted on 10 mg SepPak columns.
Desalted peptides were labelled with iTRAQ reagents according to the manufacturer's instructions (AB Sciex, Foster City, Calif.). Peptides were dissolved in 30 μl of 0.5 M TEAB pH 8.5 solution and labeling reagent was added in 70 ul of ethanol. After 1 h incubation the reaction was stopped with 50 mM Tris/HCl pH 7.5. Differentially labelled peptides were mixed and subsequently desalted on 10 mg SepPak columns.
Reconstituted peptides were separated on an online nanoflow EASY-nLC 1000 UHPLC system (Thermo Fisher Scientific) and analyzed on a benchtop Orbitrap Q Exactive Plus mass spectrometer (Thermo Fisher Scientific). The peptide samples were injected onto a capillary column (Picofrit with 10 μm tip opening/75 μm diameter, New Objective, PF360-75-10-N-5) packed in-house with 20 cm C18 silica material (1.9 μm ReproSil-Pur C18-AQ medium, Dr. Maisch GmbH, r119.aq). The UHPLC setup was connected with a custom-fit microadapting tee (360 μm, IDEX Health & Science, UH-753), and capillary columns were heated to 50° C. in column heater sleeves (Phoenix-ST) to reduce backpressure during UHPLC separation. Injected peptides were separated at a flow rate of 200 nL/min with a linear 80 min gradient from 100% solvent A (3% acetonitrile, 0.1% formic acid) to 30% solvent B (90% acetonitrile, 0.1% formic acid), followed by a linear 6 min gradient from 30% solvent B to 90% solvent B. Each sample was run for 120 min, including sample loading and column equilibration times. The Q Exactive instrument was operated in the data-dependent mode acquiring HCD MS/MS scans (R=17,500) after each MS1 scan (R=70,000) on the 12 top most abundant ions using an MS1 ion target of 3×10^6 ions and an MS2 target of 5×10^4 ions. The maximum ion time utilized for the MS/MS scans was 120 ms; the HCD-normalized collision energy was set to 27; the dynamic exclusion time was set to 20 s, and the peptide match and isotope exclusion functions were enabled.
All mass spectra were processed using the Spectrum Mill software package v6.0 pre-release (Agilent Technologies) which includes modules developed by us for iTRAQ-based quantification. […]
For PSMA1, the “BA log fold change” value was 1.20. In the case of SCFD1, the “BA log fold change” value is reported as 1.08. For KIAA0368, the “BA log fold change” value was 1.16. With PSMD11 the “BA log fold change” value was 1.02. In the case of PSMC3, the “BA log fold change” value is reported as 1.16. In the case of GCN1L1, the “BA log fold change” value is reported as 1.01. RNF5 was tested, and the “BA log fold change” value was 1.42. PSMD14 was tested, and the “BA log fold change” value was 1.31. ATP1B3 was tested, and the “BA log fold change” value was 1.18. TUBA1B was tested, and the “BA log fold change” value was 1.05. For DNAJB4, the “BA log fold change” value was 1.08. For BAG6, the “BA log fold change” value was 1.08. With PSMD2 the “BA log fold change” value was 0.98. For EMB, the “BA log fold change” value was 1.55.

The compounds below were run on SLC16A11 (assay: CRISPR (SAM) transactivation assay, SLC16A11 expression in 293T cells). Settings: Cas9-based transactivators (SAM) targeted near variant.
Format: cell-based, human
Description: These experiments are based upon Cas9 based transactivators (SAM or synergistic activation mediators) as described in Konermann et al (Nature 517: 583-588, 2015). Similar experiments based on other types of transactivators that are more finely tuned to distal activation such as those described in Hilton et al. (Nature 33:510-518, 2015) could also be envisioned. Cas9 was used to target transactivators to sites near individual variants in the credible set. Their ability to activate SLC16A11 gene expression was assessed (Table 10).
Cell lines derived from HEK293-T cells were established by lentivirus infection resulting in stable integration of two components of the SAM system namely dCas9-VP64 and MS2-p65-HSF1. The resulting stable cell lines were then plated into 96 well plates and left overnight. The next day, cells were transfected with the guide RNAs (pHKO23), the final component of the SAM system. After an additional 48 hours, cells were harvested for gene expression analyses.
“rs186568031 (guide 1 GATTTTCACTCTTGTTGCCC; guide 2 TTCACTCTTGTTGCCCAGGC; listed as DNA, chemistry not given here; listed as Homo sapiens)” was tested, and the “Increases SLC16A11 transcript levels in transactivator assay” value (from here on “Increases SLC16A11 transcript levels”) was “FALSE”. For “GTACATAATTCAATCCCCGT (chemistry not given here)”, the “Increases SLC16A11 transcript levels” value was “TRUE”. For “rs74577409 (guide 1 ACCTGCCGCCTGCTGCGCGC; guide 2 CCCTGCGCGCAGCAGGCGGC; listed as DNA, chemistry not given here; listed as Homo sapiens)”, the “Increases SLC16A11 transcript levels” value was “TRUE”. For “rs145952323 (guide 1 CAAAAATTAGCCGGGTGTGT; guide 2 CAGGCACACGCCAACACACC; listed as DNA, chemistry not given here; listed as Homo sapiens)”, the “Increases SLC16A11 transcript levels” value was “FALSE”. For “rs17203148 (guide 1 TCTGCCAATCTTGGCTCTGT; guide 2 GAAACCTACAGAGCCAAGAT; listed as DNA, chemistry not given here; listed as Homo sapiens)”, the “Increases SLC16A11 transcript levels” value was “FALSE”. “rs58223766 (guide 1 TCAGGAGTTCGAGACCATCC; guide 2 GATCCACCCCCCCCCCCCCT; listed as DNA, chemistry not given here; listed as Homo sapiens)” was tested, and the “Increases SLC16A11 transcript levels” value was “FALSE”. In the case of “TTACAGGCTTGCACCGCGCC (chemistry not given here)”, the “Increases SLC16A11 transcript levels” value is reported as “TRUE”. With “CTATTTCCACGCGTTGGCGG (chemistry not given here)” the “Increases SLC16A11 transcript levels” value was “TRUE”. With “rs75075014 (guide 1 GGAAGTGGAGGAGAGTGTCC; guide 2 GGAGTCATGCCTGGAAGTGG; listed as DNA, chemistry not given here; listed as Homo sapiens)” the “Increases SLC16A11 transcript levels” value was “FALSE”. For “rs78972129 (guide 1 GATGCTATGGTTGGCCACGC; guide 2 AGTACAGTACACAGCCTGCG; listed as DNA, chemistry not given here; listed as Homo sapiens)”, the “Increases SLC16A11 transcript levels” value was “FALSE”. For “rs1698227 (guide 1 TGGTGCTAAGGGGCACACAC; guide 2 TGCTCATTTTCCTCTGCACT; listed as DNA, chemistry not given here; listed as Homo sapiens)”, the “Increases SLC16A11 transcript levels” value was “FALSE”. “TGTTCTCAGGAACGTTGCCG (chemistry not given here)” was tested, and the “Increases SLC16A11 transcript levels” value was “TRUE”.

Each compound was assayed on SLC16A13 (assay: Metabolic effectors on SLC16A13 transcript levels in SNU761 cells). Settings: 24 hours, low and high concentrations.
Format: cell-based, human
Experimental: as §1, §2, §3
insulin: metabolic effector (hormone) was tested, and the SLC16A13 transcript levels was “alter”. In the case of glucagon: metabolic effector (hormone), the SLC16A13 transcript levels is reported as “alter”. In the case of `CCCCCCCC/C=C\CCCCCCCC(=O)O` [oleic acid], the SLC16A13 transcript levels is reported as “increase”.
